# Test results from a melting point compilation (Tetko et al.; mined from patent text by program, amines drawn as free bases though some values may be those of a salt).
row,melting point [°C],SMILES
1,157 to 158,NC(=O)CC[C@H](NC(=O)c1ccc(OCc2ccccc2)cc1OCc1ccccc1)C(=O)N1CCN(c2ccccc2)CC1
2,168 to 170,Cc1cnc(CNC(=O)c2c(-c3ccccc3)c(-c3ccc(F)cc3)c(/C=C\[C@@H](O)C[C@@H](O)CC(=O)OC(C)(C)C)n2C(C)C)cn1
3,155 to 157,CCOc1cc(C(C#N)N2C(=O)c3cccc([N+](=O)[O-])c3C2=O)ccc1OC (stereo not drawn)
4,73 to 75,COc1ccc(C(c2ccc(OC)cc2)(c2ccc(OC)cc2)N2CCCCC2)cc1
5,118 to 119,CCOC(=O)/C=C/c1cn(-c2ccc(C(F)(F)F)cc2)nc1C(C)C
6,130 to 132,COc1ccc(/C(=C/C=C/C(=O)O)C2CCCCC2)cc1
7,186 to 188,COc1cccc(/C=C/C2=CCN(Cc3c[nH]c4ncccc34)CC2)c1
8,246 to 247,CC1Cc2cc3c(cc2C(c2ccc([N+](=O)[O-])cc2)=NN1c1nc(=O)n(C2CC2)s1)OCO3 (stereo not drawn)
9,110,CCOC(=O)c1cc2cc(OCCN(C)C)ccc2[nH]1
10,125,CCN(CC)CC1CCCN(CCNC(=O)N2c3cc(Cl)ccc3C(=O)Nc3cccnc32)C1 (stereo not drawn)
11,148 to 150,COc1ccc2cc(O)c(C(C)(C)O)cc2c1
12,118 to 128,CCOC(=O)Cc1nn(C(c2ccccn2)c2ncno2)c(=O)c2ccccc12 (stereo not drawn)
13,161,CCOc1ccc2c(c1)n(C1CCCCC1)c(=O)n2Cc1ccc(C(=O)NC(C)(C)CN(C)C)cc1OC
14,123 to 134,CC(C)COc1nc(N)c2ncn(C3CCCCC3)c2n1
15,178 to 180,CN1CCN(c2cccc3c2C[C@H](NC(=O)c2ccc(N4CCCCC4)cc2)CO3)CC1
16,134 to 139,CS(=O)(=O)c1ccc(-c2cnn(CC(F)(F)F)c(=O)c2NC2CCCC2)cc1
17,179 to 180,O=C(O)COC1c2ccccc2COc2ccc(OCc3ccc4cc(Cl)ccc4n3)cc21 (stereo not drawn)
18,171 to 172,CCC(=S)NC[C@H]1CN(c2ccc(N3CCN(C(=O)COc4ccccc4)CC3)c(F)c2)C(=O)O1
19,143,CN(CCN1CCC(Nc2nc3ccccc3n2Cc2ccc(F)cc2)CC1)c1nccs1
20,129 to 130,COc1ccc(C2(O)C=CC=CC2CCc2c(Cl)cncc2Cl)cc1OC1CCCC1 (stereo not drawn)

row,melting point [°C],SMILES
1,230,COc1ccc2cc(O)c(C(=O)Nc3ccccc3)cc2c1
2,78,COc1ccc(COc2cccc(C=O)c2)cc1
3,136 to 138,CC(C)(C)OC(=O)CC1=CCC(=O)Nc2ccccc21
4,170 to 185,CC1(C)CCC(=O)Nc2ccc(Nc3ncc(Cl)c(N[C@@H]4CCCC[C@H]4NS(C)(=O)=O)n3)cc21
5,173 to 175,CCCC(c1ccccc1)c1c(O)c2c(oc1=O)CCCCCC2 (stereo not drawn)
6,78,COC(=O)CCCc1cc2nc(C(F)(F)F)ccc2n1S(=O)(=O)c1ccc(C(C)C)cc1
7,110 to 114,CCOC(=O)c1ccc(NCc2ccccc2)nc1C(=O)OCC
8,118 to 120,C=CCOc1ccccc1-c1ncc(C(=O)OCC)c(=O)[nH]1
9,245 to 247,CCN1CCN(c2ccc(Nc3cc(-c4cccc(-n5ncc6cc(C(C)(C)C)cc(F)c6c5=O)c4CO)nn(C)c3=O)nc2)CC1
10,163 to 165,CC(C)c1ccc(NC(=O)OC(C)(C)C)c(NC(=O)CC(=O)c2ccnc(C#N)c2)c1
11,67 to 69,CCOC(=O)C=Cc1ccc(OCCCc2ccccc2)c([N+](=O)[O-])c1
12,144 to 146,CCCCc1nn(-c2cc(NC(C)=O)ccc2Cl)c(=O)n1Cc1ccc(-c2cc(CCC)ccc2S(=O)(=O)NC(=O)c2ccccc2Cl)cc1F
13,126 to 129,COC1=C(Cl)C(Cl)C(C(=O)C2(C3=CCCCC3)C=CC(OC)=C(Cl)C2Cl)(C2=CCCCC2)C=C1 (stereo not drawn)
14,136 to 137,Cc1ccccc1C(CCC(=O)O)Oc1cc(OCc2cccc(CCC(=O)O)c2)ccc1C#N (racemic)
15,135 to 137,CCOC(=O)/C(=C/c1conc1-c1ccc(OC)cc1OCc1ccccc1C(=O)OC)Cc1cc2c(cc1OC)OCO2
16,240,CN1CC(=O)N2[C@H](c3ccc4c(c3)CCN4)c3[nH]c4ccccc4c3C[C@@H]2C1=O
17,135 to 140,CC(=O)N1CCSC1c1nsc2ccc(-n3c(=O)cc(C(F)(F)F)n(C)c3=O)cc12 (stereo not drawn)
18,173 to 174,COc1cccc(CC(=O)c2c(O)c3cccnc3n(-c3ccccc3)c2=O)c1
19,123 to 124,COC(=O)COc1cc(C(C)=O)c(O)c2ccccc12
20,85 to 86,COc1cc(N(C)C)c(Cl)cc1C(=O)NC1CCN(Cc2ccccc2)C1 (stereo not drawn)

# Further lines, the molecule ahead of its results:
row,SMILES,melting point [°C]
1,Cc1ccc(S(=O)(=O)N(CC(=O)OCc2ccccc2)c2ccc(Cl)cc2C(=O)c2ccccc2Cl)cc1,99 to 101
2,CNc1ccc(/C=C/c2c(F)cccc2Cl)cc1,43 to 45
3,COC(=O)NC1=NC(c2ccc3ccccc3c2)CN1 (stereo not drawn),227 to 228
4,CNc1nc(Cl)cc(NS(=O)(=O)c2ccc(F)cc2)n1,121 to 123
5,O=[N+]([O-])c1ccc(Oc2cccc3c(Oc4ccc([N+](=O)[O-])c(O)c4)cccc23)cc1O,238 to 241
6,CC1CC2C3CC(Cl)C4=CC(=O)C=CC4(C)C3(Cl)C(O)CC2(C)C1C(=O)CO (stereo not drawn),230
7,N#Cc1ncn2c(C(F)(F)F)cc(-c3ccc(C(F)(F)F)cc3)nc12,236
8,O=C(O)c1ccc(-c2ccc(C(=O)O)c(C(=O)O)c2)cc1C(=O)O,295 to 302
9,CC(C)C(=O)N[C@@H](CS)C(=O)NCCSC(=O)C(C)(C)C,120 to 122
10,Clc1ccccc1Oc1cnccc1N1CCNCC1,99 to 101
11,CC1=C(/C=C/S(=O)(=O)NC(C)C)[C@H](c2cccc([N+](=O)[O-])c2)C(C(=O)O[C@H](C)c2ccccc2)=C(C)N1,198 to 201
12,CC12CCC(C(=Cc3ccc([N+](=O)[O-])cc3)C1=O)C2(C)C (stereo not drawn),158
13,CN(CCCc1cccc(Oc2ccc(C(F)(F)F)cc2)c1)N=O,75 to 76
14,COc1ccc([N+](=O)[O-])c2[nH]ccc(=O)c12,195 to 200
15,CN1CCN(C(=O)Oc2ccc(C[C@H](NC(=O)Nc3ccccc3S(=O)(=O)c3ccccc3)C(=O)O)cc2)CC1,160
16,c1ccc(Nc2nc(-c3cn[nH]c3)c(N3CCCCC3)s2)nc1,238
17,O=C(O)CC1(c2ccccc2)CCCCC1=O (stereo not drawn),130 to 132
18,O=c1cc2c(n[nH]1)-c1ccccc1CC2,236
19,COc1nc2c(c(OC)n1)C(c1ccc(O)c(OC)c1)C1=C(COC1=O)N2 (stereo not drawn),294 to 296
20,O=c1[nH]ncc2c1c(O)nc1cc(Cl)ccc12,> 350

row,SMILES,melting point [°C]
1,O=C1CCC2=C(CCCC2)N1,143 to 144
2,COc1cc(Nc2c(C#N)cnc3cc(Br)sc23)c(Cl)cc1Cl,228 to 229
3,CC(C)(C)C(F)(F)c1ccc(C(N)=O)cc1,128 to 132
4,O=c1c2c(oc3c1nnn3Cc1ccccc1)CSC2,210 to 212
5,NC(=O)N1C(=O)C(C(=O)c2cccs2)c2ncc(F)cc21 (stereo not drawn),265
6,N#CCc1ccccc1NC(=O)C(F)(F)C(F)(F)C(F)(F)F,76 to 79
7,Cc1nc(N)c(C#N)cc1-c1ccccc1,182 to 189
8,CC(C)N1CC2CC(C1)CN(C(C)(O)c1ccc(F)cc1)C2 (stereo not drawn),53 to 54
9,NCC1Cc2cc(C(F)(F)F)cc(-c3ccc(F)cc3)c2O1 (stereo not drawn),> 250
10,CC1(C)OC(=O)C(Oc2ccc(Cl)cc2)=C1c1ccc(S(C)(=O)=O)cc1,113 to 114
11,CN(CCc1ccc([N+](=O)[O-])cc1)Cc1cc2cc([N+](=O)[O-])ccc2s1,76 to 78
12,CC(C)(C)c1cc(SCCCCSCC(=O)O)cc(C(C)(C)C)c1O,84 to 86
13,O=CC1CC1(c1cccc(F)c1)c1cccc(F)c1 (stereo not drawn),49 to 51
14,Cc1nc2c3c(ccc2n1C)C(=O)[C@H](O)[C@@H](c1ccccc1)O3,233
15,[N-]=[N+]=Nc1ccc(C(=O)OCCOC(=O)CC[C@@H](C(=O)O)n2c3ccccc3c3ccccc32)cc1,70
16,CC(C)(C)C1CCC2(CC1)CC(=NO)CO2 (stereo not drawn),118
17,NC(=O)c1ccccc1OCCNCC(O)COc1nccnc1Cl (stereo not drawn),132 to 133
18,N#Cc1c(-c2ccc(C(F)(F)F)cc2)n(O)c2ccccc12,202 to 203
19,Nc1nc2ccccc2c2c1nc1n2CCCN1,> 250
20,N#Cc1nccnc1Oc1cccc(C(F)(F)F)c1,68 to 70

row,SMILES,melting point [°C]
1,CC(C)(C)OC(=O)C(=[N+]=[N-])C(=O)COCc1ccccc1,68
2,CC(C)NC(=O)N[C@@H](Cc1ccccc1)[C@H](O)[C@H](O)[C@H](Cc1ccccc1)NC(=O)NC(C)C,220 to 222
3,CCCCCCCNc1nc(C)c(O)c(=O)[nH]1,233 to 235
4,OCc1cc(C(F)(F)F)ccc1Sc1ccccc1,84
5,O=C1c2cccnc2CCCC1Br (stereo not drawn),193 to 195
6,C[Si](C)(C)C#Cc1ccc(O)cc1,60 to 63.5
7,O=C1CCc2cc(-c3cccnc3)ccc21,103 to 106
8,CCCCNC(=O)NS(=O)(=O)c1c(C(=O)OCC)cnn1-c1ccccn1,180 to 181
9,Cc1noc(NS(=O)(=O)c2ccc(-c3ccc(C(F)(F)F)cc3)s2)c1Br,132
10,COc1ccc(NS(=O)(=O)c2ccc([N+](=O)[O-])cc2)cc1,173 to 175
11,Fc1ccc([C@@]2(Cn3nc[nH]c3=S)O[C@@H]2c2ccccc2C(F)(F)F)cc1F (relative stereo),143 to 146
12,CCc1cc(CC)c2ccc(=O)[nH]c2n1,159 to 161
13,COc1cn(-c2ccc(-n3cc(F)c(F)c3)cc2F)nc(-c2ccnn2-c2ccccc2)c1=O,212 to 214
14,CN(C)c1ccc(-c2cn[nH]c2N)cc1,173 to 176
15,CCCC(Cn1ncnc1S)c1ccc(Cl)cc1Cl (stereo not drawn),103
16,O=C(CCl)NCc1c(O)ccc2c1CCCC2=O,196 to 199
17,CC(=O)Nc1ccc(SCCCCNS(=O)(=O)c2ccc(C)cc2)cc1,104 to 105
18,Cc1cccc2c3c([nH]c12)CCC(N1CCCC1)C3 (stereo not drawn),159 to 163
